From US20240307487A1 (priority 2020, published 2024)
In brackets after ≈: the same amount, converted by molar mass. Structures can show the parent of a compound that is named as a salt. Where two headings read alike, the source gives them in different places. Where a SMILES comes first, the peptide text is derived from it.

Legend:
SARS-CoV-2 [1] = tested on: SARS-CoV-2
A(H1N1)pdm09 virus [2] = type: cell-based
[3] = tested on: endosomal acidification in MDCK cells; type: cell-based, canine
[4] = tested on: virus-host endosomal acidification; type: cell-based
SARS-CoV-2 [5] = type: binding
A(H1N1)pdm09 virus [6] = type: binding
MERS-CoV [7] = type: binding
A(H7N9) virus [8] = type: binding
rhinovirus [9] = type: binding; settings: peptide coated on ELISA plate, bound virus by RT-qPCR
SARS-CoV [10] = type: binding
parainfluenza 3 (Para-3) = type: cell-based; settings: 24 h post-infection
MERS-CoV [11] = tested on: MERS-CoV
A(H7N9) virus [12] = tested on: A(H7N9) virus
rhinovirus [13] = tested on: rhinovirus
rhinovirus [14] = tested on: rhinovirus; remark: listed apart in the source
H1N1 HA1 protein = H1N1 HA1 protein (Influenza A virus, UniProt C3W5S1)
H1N1 HA1 protein, sequence (C3W5S1 18-344 limits assumed): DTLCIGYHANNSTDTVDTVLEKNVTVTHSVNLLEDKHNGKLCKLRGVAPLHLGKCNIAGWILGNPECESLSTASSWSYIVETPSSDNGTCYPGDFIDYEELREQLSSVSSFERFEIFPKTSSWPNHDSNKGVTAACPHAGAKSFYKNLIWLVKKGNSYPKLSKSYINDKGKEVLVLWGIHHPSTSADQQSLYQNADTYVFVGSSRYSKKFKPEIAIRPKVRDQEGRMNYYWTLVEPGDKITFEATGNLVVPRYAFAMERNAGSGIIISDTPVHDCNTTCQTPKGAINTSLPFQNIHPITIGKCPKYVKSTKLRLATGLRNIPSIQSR

MERS-CoV S protein = MERS-CoV S protein (Middle East respiratory syndrome-related coronavirus, UniProt K9N5Q8)
MERS-CoV S protein, sequence (K9N5Q8 18-1353 limits assumed): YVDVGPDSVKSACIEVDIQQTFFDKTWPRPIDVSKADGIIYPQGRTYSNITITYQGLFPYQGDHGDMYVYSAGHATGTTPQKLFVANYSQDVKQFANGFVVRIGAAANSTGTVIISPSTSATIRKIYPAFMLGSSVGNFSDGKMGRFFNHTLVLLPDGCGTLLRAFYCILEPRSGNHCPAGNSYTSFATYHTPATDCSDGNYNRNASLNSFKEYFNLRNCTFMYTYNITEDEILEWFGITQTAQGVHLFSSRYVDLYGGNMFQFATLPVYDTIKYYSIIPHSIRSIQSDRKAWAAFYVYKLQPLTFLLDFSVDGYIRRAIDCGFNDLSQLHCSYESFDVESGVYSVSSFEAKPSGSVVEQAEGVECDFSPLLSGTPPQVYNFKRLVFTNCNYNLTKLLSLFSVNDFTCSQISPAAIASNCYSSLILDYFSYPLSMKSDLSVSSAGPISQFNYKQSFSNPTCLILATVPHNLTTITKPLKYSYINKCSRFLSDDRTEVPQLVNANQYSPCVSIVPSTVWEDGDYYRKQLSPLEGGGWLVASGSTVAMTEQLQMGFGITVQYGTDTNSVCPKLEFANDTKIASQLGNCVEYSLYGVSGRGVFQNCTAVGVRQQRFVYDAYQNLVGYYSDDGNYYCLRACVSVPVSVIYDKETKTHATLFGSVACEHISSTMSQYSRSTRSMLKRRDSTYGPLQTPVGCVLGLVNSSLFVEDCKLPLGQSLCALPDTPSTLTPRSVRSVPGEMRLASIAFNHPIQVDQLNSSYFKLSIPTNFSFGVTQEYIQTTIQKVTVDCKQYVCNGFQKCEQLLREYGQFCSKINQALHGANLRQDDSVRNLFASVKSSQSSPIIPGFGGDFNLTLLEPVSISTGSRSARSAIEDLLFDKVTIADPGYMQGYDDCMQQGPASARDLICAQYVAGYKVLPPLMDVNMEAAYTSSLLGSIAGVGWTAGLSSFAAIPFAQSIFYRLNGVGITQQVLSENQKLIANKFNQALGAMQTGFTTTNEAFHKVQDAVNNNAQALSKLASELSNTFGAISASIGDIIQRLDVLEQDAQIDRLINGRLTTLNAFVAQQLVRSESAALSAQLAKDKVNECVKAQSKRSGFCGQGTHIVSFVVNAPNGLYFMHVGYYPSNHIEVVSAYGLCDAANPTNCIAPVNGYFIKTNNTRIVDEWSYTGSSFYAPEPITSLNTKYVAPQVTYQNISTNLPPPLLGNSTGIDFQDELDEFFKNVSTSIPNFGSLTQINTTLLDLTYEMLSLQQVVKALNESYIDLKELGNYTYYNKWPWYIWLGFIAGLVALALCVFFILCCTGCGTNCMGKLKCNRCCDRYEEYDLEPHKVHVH

in vitro [15] = settings: dog
in vitro [16] = settings: African green monkey
in vitro [17] = settings: human
SARS-CoV-2 [18] = experiment: microbe, parasite or virus in culture; type: cell-based
[19] = in vivo; cited from earlier work
[20] = tested on: spike-ACE2 mediated cell fusion; type: cell-based, human
SARS-CoV [21] = tested on: SARS-CoV; set-up: species or system mice; settings: in vivo
SARS-CoV-2 [22] = tested on: SARS-CoV-2; set-up: species or system hamsters; settings: in vivo
SARS-CoV-2 [23] = settings: cited from earlier work
SARS-CoV-2 [24] = settings: cited from earlier work; remark: listed apart in the source
SARS-CoV-2 [25] = type: cell-based
SARS-CoV [26] = type: cell-based

CC[C@H](C)[C@H](NC(=O)[C@H](C)NC(=O)CNC(=O)[C@@H](N)CC(N)=O)C(=O)N[C@@H](CS)C(=O)N[C@@H](Cc1c[nH]c2ccccc12)C(=O)NCC(=O)N1CCC[C@H]1C(=O)N[C@@H](CS)C(=O)N1CCC[C@H]1C(=O)N[C@H](C(=O)N[C@@H](C)C(=O)N[C@@H](Cc1ccccc1)C(=O)N[C@@H](CCCNC(=N)N)C(=O)N[C@@H](CCC(N)=O)C(=O)N[C@H](C(=O)NCC(=O)N[C@@H](CC(N)=O)C(=O)N[C@@H](CS)C(=O)NCC(=O)N[C@@H](Cc1c[nH]cn1)C(=O)N[C@@H](Cc1ccccc1)C(=O)N[C@@H](CCCCN)C(=O)N[C@H](C(=O)N[C@@H](CCCNC(=N)N)C(=O)N[C@@H](CS)C(=O)N[C@@H](CS)C(=O)N[C@@H](CCCCN)C(=O)N[C@H](C(=O)N[C@@H](CCCNC(=N)N)C(=O)O)[C@@H](C)CC)C(C)C)[C@@H](C)CC)[C@@H](C)O [P9, reference compound]
IC50 against SARS-CoV-2 (SARS-CoV-2 [1]): 2.4 µg/mL (≈ 0.719 µM) | IC50 against parainfluenza virus 3 (parainfluenza virus 3): > 25.0 µg/mL

CC[C@H](C)[C@H](NC(=O)[C@H](C)NC(=O)CNC(=O)[C@@H](N)CC(N)=O)C(=O)N[C@@H](CS)C(=O)N[C@@H](Cc1c[nH]c2ccccc12)C(=O)NCC(=O)N1CCC[C@H]1C(=O)N[C@@H](CS)C(=O)N1CCC[C@H]1C(=O)N[C@H](C(=O)N[C@@H](C)C(=O)N[C@@H](Cc1ccccc1)C(=O)N[C@@H](CCCNC(=N)N)C(=O)N[C@@H](CCC(N)=O)C(=O)N[C@H](C(=O)NCC(=O)N[C@@H](CC(N)=O)C(=O)N[C@@H](CS)C(=O)NCC(=O)N[C@@H](CCCNC(=N)N)C(=O)N[C@@H](Cc1ccccc1)C(=O)N[C@@H](CCCNC(=N)N)C(=O)N[C@H](C(=O)N[C@@H](CCCNC(=N)N)C(=O)N[C@@H](CS)C(=O)N[C@@H](CS)C(=O)N[C@@H](CCCNC(=N)N)C(=O)N[C@H](C(=O)N[C@@H](CCCNC(=N)N)C(=O)O)[C@@H](C)CC)C(C)C)[C@@H](C)CC)[C@@H](C)O [P9R] (H-NGAICWGPCPTAFRQIGNCGRFRVRCCRIR-OH)
inhibition against A(H1N1)pdm09 virus compared with P9 (A(H1N1)pdm09 virus [2]): significantly stronger inhibition | inhibition of endosomal acidification (no-virus endosomes) [3]: could more significantly inhibit endosomal acidification | inhibition of virus-host endosomal acidification [4]: could efficiently inhibit | binding to SARS-CoV-2 (SARS-CoV-2 [5]): could efficiently bind | binding to A(H1N1)pdm09 virus (A(H1N1)pdm09 virus [6]): could efficiently bind | binding to MERS-CoV (MERS-CoV [7]): could also bind | binding to A(H7N9) virus (A(H7N9) virus [8]): could also bind | binding to rhinovirus (rhinovirus [9]): could also bind | binding to SARS-CoV (SARS-CoV [10]): could also bind | parainfluenza 3 viral RNA in LLC-MK2 cells (parainfluenza 3 (Para-3)): inhibits parainfluenza 3 in LLC-MK2 cells | IC50 against SARS-CoV-2 (SARS-CoV-2 [1]): 0.9 µg/mL (≈ 0.264 µM) | inhibition against MERS-CoV compared with P9 (MERS-CoV [11]): significantly stronger inhibition | inhibition against A(H7N9) virus compared with P9 (A(H7N9) virus [12]): significantly stronger inhibition | inhibition against rhinovirus compared with P9 (rhinovirus [13]): significantly stronger inhibition | inhibition of viral replication, rhinovirus (rhinovirus [14]): > 20 fold | binding to viral proteins: H1N1 HA1 protein (H1N1 HA1 protein): could also bind | binding to viral proteins: MERS-CoV S protein (MERS-CoV S protein): could also bind | CC50 at 24 h (in vitro [15]): > 300 µg/mL | CC50 at 24 h (in vitro [16]): > 300 µg/mL | CC50 at 24 h (in vitro [17]): > 300 µg/mL

CCOC(=O)c1c(CSc2ccccc2)n(C)c2cc(Br)c(O)c(CN(C)C)c12 [arbidol]
IC50 (SARS-CoV-2 [18]; Severe acute respiratory syndrome coronavirus 2, Vero C1008, 24 h, read-out: normal IC50 of arbidol against SARS-CoV-2): 3.6 µg/mL (≈ 7.54 µM) | peak serum concentration [19]: lower than 2 μg ml-1

CO/C1=C\C(C)=C\[C@@H](C)[C@@H](O)[C@@H](C)C/C(C)=C/C=C/[C@H](OC)[C@@H]([C@@H](C)[C@@H](O)[C@H](C)[C@@]2(O)C[C@@H](O)[C@H](C)[C@@H](C(C)C)O2)OC1=O [bafilomycin A1, reference compound]
inhibition of virus-host endosomal acidification [4]: could efficiently inhibit | spike-ACE2 mediated cell membrane fusion [20]: could inhibit spike-ACE2 mediated cell membrane fusion

CN(C)C(=O)COC(=O)Cc1ccc(OC(=O)c2ccc(NC(=N)N)cc2)cc1 [camostat, Camostat mesylate]
SARS-CoV replication in mouse lungs (SARS-CoV [21]): could not inhibit viral replication | SARS-CoV-2 replication in hamster lungs (SARS-CoV-2 [22]): could not significantly inhibit SARS-CoV-2 replication in hamsters | SARS-CoV-2 replication in Calu-3 cells (SARS-CoV-2 [23]): could significantly inhibit SARS-CoV-2 replication in Calu-3 cells | SARS-CoV-2 replication in Vero-E6 cells (SARS-CoV-2 [24]): could not inhibit SARS-CoV-2 replication

CCN(CC)CCCC(C)Nc1ccnc2cc(Cl)ccc12 (stereo not shown) [chloroquine]
SARS-CoV-2 replication in Vero-E6 cells (SARS-CoV-2 [18]): could significantly inhibit SARS-CoV-2 replication in Vero-E6 cells | enhancement of antiviral activity of arbidol against SARS-CoV-2 (SARS-CoV-2 [18]): could significantly enhance the antiviral activity of arbidol | SARS-CoV-2 replication in Calu-3 cells (SARS-CoV-2 [25]): not in Calu-3 cells | enhancement of antiviral activity of arbidol against SARS-CoV (SARS-CoV [26]): could significantly enhance the antiviral activity of arbidol | SARS-CoV replication in mouse lungs (SARS-CoV [21]): could not inhibit SARS-CoV replication in mouse lungs | SARS-CoV-2 replication in hamster lungs (SARS-CoV-2 [22]): could not significantly inhibit SARS-CoV-2 replication in hamsters | SARS-CoV-2 replication in Calu-3 cells (SARS-CoV-2 [23]): did not inhibit SARS-CoV-2 replication in Calu-3 cells
